Data: patent US20220281848A1, “PYRAZOLE-SUBSTITUTED PYRROLIDINONES AS HERBICIDES” (FMC Corporation, priority 2019, published 2022)

Test system: maize
Test: Test D post-emergence, maize seed treated with a herbicide safener
Format: in vivo
Procedure: A formulation containing 50 g/L of the test chemical was prepared by dissolving the active ingredient in a mixture of organic solvents and emulsifier, details of which are provided in the table. This formulation was then mixed with a small, variable amount of acetone to aid dissolution, before addition of a 0.2% v/v aqueous solution of an adjuvant, as the aqueous diluent, to form an aqueous spray solution which contains a predetermined concentration of the active ingredient.
This aqueous spray solution was then sprayed onto plants including maize and wheat that had been seed treated with a herbicide safener, after one day's cultivation (for pre-emergence) or after about 12 days' cultivation (for post-emergence). The plants were grown from seeds sown in standard soil, placed in a glasshouse under controlled conditions (at 24/18° C. or 20/16° C., day/night; 16 h light; 65% humidity). After spray application the plants were then grown in a glasshouse under the same conditions and watered twice daily. After 15 d for post-emergence and 20 DAA for pre-emergence the test was evaluated (100=total damage to plant; 0=no damage to plant).

CN1CC(c2cc(C(F)(F)F)n(C)n2)C(C(=O)Nc2cccc(F)c2F)C1=O (racemic) [Compound 3]
damage to plant (100=total damage to plant; 0=no damage to plant), ZEAMX (rate 130, evaluated after 15 d): 0
damage to plant (100=total damage to plant; 0=no damage to plant), ZEAMX (rate 250, evaluated after 15 d): 0
damage to plant (100=total damage to plant; 0=no damage to plant), ZEAMX (rate 500, evaluated after 15 d): 10

CN1CC(c2cc(C(F)(F)F)n(C)n2)C(C(=O)Nc2ccc(F)cc2F)C1=O (racemic) [Compound 6]
damage to plant (100=total damage to plant; 0=no damage to plant), ZEAMX (rate 130, evaluated after 15 d): 0
damage to plant (100=total damage to plant; 0=no damage to plant), ZEAMX (rate 250, evaluated after 15 d): 10
damage to plant (100=total damage to plant; 0=no damage to plant), ZEAMX (rate 500, evaluated after 15 d): 20

CN1CC(c2cc(C(F)(F)F)n(C)n2)C(C(=O)Nc2ccc(F)c(F)c2F)C1=O (racemic) [Compound 17]
damage to plant (100=total damage to plant; 0=no damage to plant), ZEAMX (rate 130, evaluated after 15 d): 0
damage to plant (100=total damage to plant; 0=no damage to plant), ZEAMX (rate 250, evaluated after 15 d): 0
damage to plant (100=total damage to plant; 0=no damage to plant), ZEAMX (rate 500, evaluated after 15 d): 0

COc1c(F)cccc1NC(=O)C1C(=O)N(C)CC1c1cc(C(F)(F)F)n(C)n1 (racemic) [Compound 18]
damage to plant (100=total damage to plant; 0=no damage to plant), ZEAMX (rate 130, evaluated after 15 d): 0
damage to plant (100=total damage to plant; 0=no damage to plant), ZEAMX (rate 250, evaluated after 15 d): 0
damage to plant (100=total damage to plant; 0=no damage to plant), ZEAMX (rate 500, evaluated after 15 d): 10

CN1CC(c2cc(C(F)(F)F)n(C)n2)C(C(=O)Nc2cccc(F)c2C(F)(F)F)C1=O (racemic) [Compound 19]
damage to plant (100=total damage to plant; 0=no damage to plant), ZEAMX (rate 130, evaluated after 15 d): 0
damage to plant (100=total damage to plant; 0=no damage to plant), ZEAMX (rate 250, evaluated after 15 d): 0
damage to plant (100=total damage to plant; 0=no damage to plant), ZEAMX (rate 500, evaluated after 15 d): 30

CN1CC(c2cc(C(F)(F)F)n(C)n2)C(C(=O)Nc2ccc(F)nc2F)C1=O (racemic) [Compound 22]
damage to plant (100=total damage to plant; 0=no damage to plant), ZEAMX (rate 130, evaluated after 15 d): 0
damage to plant (100=total damage to plant; 0=no damage to plant), ZEAMX (rate 250, evaluated after 15 d): 0
damage to plant (100=total damage to plant; 0=no damage to plant), ZEAMX (rate 500, evaluated after 15 d): 20

CN1CC(c2cc(C(F)(F)F)n(C)n2)C(C(=O)Nc2cccc(F)n2)C1=O (racemic) [Compound 24]
damage to plant (100=total damage to plant; 0=no damage to plant), ZEAMX (rate 130, evaluated after 15 d): 0
damage to plant (100=total damage to plant; 0=no damage to plant), ZEAMX (rate 250, evaluated after 15 d): 0
damage to plant (100=total damage to plant; 0=no damage to plant), ZEAMX (rate 500, evaluated after 15 d): 20

CN1CC(c2cc(C(F)(F)F)n(C)n2)C(C(=O)Nc2ccc(F)cc2C(C)(F)F)C1=O (racemic) [Compound 26]
damage to plant (100=total damage to plant; 0=no damage to plant), ZEAMX (rate 130, evaluated after 15 d): 0
damage to plant (100=total damage to plant; 0=no damage to plant), ZEAMX (rate 250, evaluated after 15 d): 0
damage to plant (100=total damage to plant; 0=no damage to plant), ZEAMX (rate 500, evaluated after 15 d): 10

CN1C[C@H](c2nn(C)c3c(F)cccc23)[C@@H](C(=O)Nc2cccc(F)c2F)C1=O [Compound 2]
damage to plant (100=total damage to plant; 0=no damage to plant), ZEAMX (rate 130, evaluated after 15 d): 0
damage to plant (100=total damage to plant; 0=no damage to plant), ZEAMX (rate 250, evaluated after 15 d): 0
damage to plant (100=total damage to plant; 0=no damage to plant), ZEAMX (rate 500, evaluated after 15 d): 20

CCn1nc([C@H]2CN(C)C(=O)[C@@H]2C(=O)Nc2cccc(F)c2F)c2c(F)cccc21 [Compound 7]
damage to plant (100=total damage to plant; 0=no damage to plant), ZEAMX (rate 130, evaluated after 15 d): 0
damage to plant (100=total damage to plant; 0=no damage to plant), ZEAMX (rate 250, evaluated after 15 d): 0
damage to plant (100=total damage to plant; 0=no damage to plant), ZEAMX (rate 500, evaluated after 15 d): 10

CCn1nc([C@H]2CN(C)C(=O)[C@@H]2C(=O)Nc2cccc(F)c2F)c2cc(F)ccc21 [Compound 8]
damage to plant (100=total damage to plant; 0=no damage to plant), ZEAMX (rate 130, evaluated after 15 d): 0
damage to plant (100=total damage to plant; 0=no damage to plant), ZEAMX (rate 250, evaluated after 15 d): 0
damage to plant (100=total damage to plant; 0=no damage to plant), ZEAMX (rate 500, evaluated after 15 d): 0

CCn1nc([C@@H]2CN(C)C(=O)[C@H]2C(=O)Nc2cccc(F)c2F)c2cccc(F)c21 [Compound 14]
damage to plant (100=total damage to plant; 0=no damage to plant), ZEAMX (rate 130, evaluated after 15 d): 0
damage to plant (100=total damage to plant; 0=no damage to plant), ZEAMX (rate 250, evaluated after 15 d): 0
damage to plant (100=total damage to plant; 0=no damage to plant), ZEAMX (rate 500, evaluated after 15 d): 20
